Assay results from article PMC9572811, “Synthesis of Novel Benzimidazole-Based Thiazole Derivatives as Multipotent Inhibitors of α-Amylase and α-Glucosidase: In Vitro Evaluation along with Molecular Docking Study” (Molecules, 2022).
Read-outs that look alike come from different tables or passages of the source.

Columns and labels:
α-amylase = molecular target: T1, α-amylase (Sus scrofa, UniProt P00690); experiment: α-amylase inhibition assay; format: biochemical, Porcine
T1 sequence (P00690 16-511): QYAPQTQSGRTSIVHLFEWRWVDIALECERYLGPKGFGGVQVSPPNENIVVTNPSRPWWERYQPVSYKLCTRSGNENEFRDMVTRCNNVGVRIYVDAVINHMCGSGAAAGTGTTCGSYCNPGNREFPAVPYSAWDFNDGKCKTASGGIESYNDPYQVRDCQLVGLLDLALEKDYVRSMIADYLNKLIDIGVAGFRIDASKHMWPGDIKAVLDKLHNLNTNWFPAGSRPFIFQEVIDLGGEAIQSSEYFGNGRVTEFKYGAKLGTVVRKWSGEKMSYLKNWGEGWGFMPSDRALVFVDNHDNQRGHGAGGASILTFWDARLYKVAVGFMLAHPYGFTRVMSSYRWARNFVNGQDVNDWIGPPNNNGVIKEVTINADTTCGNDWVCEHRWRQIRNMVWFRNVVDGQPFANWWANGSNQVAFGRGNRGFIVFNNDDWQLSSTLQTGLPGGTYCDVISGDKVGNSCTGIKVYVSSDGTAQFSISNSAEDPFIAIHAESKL

[1] = in vitro, porcine pancreatic α-amylase, starch substrate, acarbose as standard

IC50 (α-amylase) [nM] | melting point [°C] | IC50 (α-amylase; [1]) [nM] | Structure (SMILES)
2200 ± 100 | 206 to 207 |  | O=[N+]([O-])c1ccc(/C(CSc2nc3ccccc3[nH]2)=N\Nc2nc(-c3ccc(Cl)c(Cl)c3)cs2)cc1 [Compound 1]
 | 199 to 200 | 1300 ± 50 | O=[N+]([O-])c1ccc(C(CSc2nc3ccccc3[nH]2)=NNc2nc(-c3ccc(F)cc3)cs2)cc1 [Compound 3]
 |  | 1900 ± 100 | O=[N+]([O-])c1ccc(C(CSc2nc3ccccc3[nH]2)=NNc2nc(-c3ccccc3F)cs2)cc1 [Compound 4]
